Experimental findings from PubChem BioAssay (NCI) are described below.

Among the test systems are HS 578T breast; SK-MEL-28 melanoma; KM12 colon; ACHN renal; A549 NSCLC; SR leukemia; HT29 colon; PC-3 prostate; HOP-92 NSCLC; OVCAR-8 ovarian; T-47D breast; SF-268 CNS; BT-549 breast; OVCAR-3 ovarian; SK-MEL-5 melanoma; COLO 205 colon; NCI/ADR-RES ovarian; SNB-19 CNS; IGROV1 ovarian; UO-31 renal.
Common to all, as to test: NCI anticancer screen, dose series, 48 h

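Step 1: Grow cells in 96-well plates. Step 2: Expose to compound for 48 hours at 5 concentrations. Step 3: Interpolate endpoints linearly; if unreached, use highest concentration. At the TGI there is no net growth.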 Bounds are passed on as bounds.

Consider `c1ccc2c(c1)nc1n2CNCC1`, for which the TGI in the assay with HS 578T breast, in the assay with SK-MEL-28 melanoma, in the assay on KM12 colon, in the assay with ACHN renal, with A549 NSCLC and in the assay with SR leukemia was over 100 µM each time. Moreover, the TGI in the assay with HT29 colon, in the assay with PC-3 prostate, in the assay on HOP-92 NSCLC, in the assay with OVCAR-8 ovarian, in the assay on T-47D breast and in the assay on SF-268 CNS was over 100 µM in each case. In addition, the TGI with BT-549 breast, with OVCAR-3 ovarian, in the assay with SK-MEL-5 melanoma, in the assay on COLO 205 colon, with NCI/ADR-RES ovarian and in the assay on SNB-19 CNS was over 100 µM throughout. The TGI with IGROV1 ovarian and in the assay on UO-31 renal was over 100 µM throughout.

Regarding `O=C(Nc1ccc2nc(-c3ccccc3)cn2c1)Oc1ccccc1`, the TGI in the assay on HS 578T breast, in the assay with SK-MEL-28 melanoma, with KM12 colon, in the assay on ACHN renal, in the assay on A549 NSCLC and with SR leukemia was over 100 µM throughout. Moreover, the TGI with HT29 colon was over 100 µM; with PC-3 prostate it was over 100 µM; in the assay on HOP-92 NSCLC, over 100 µM; with OVCAR-8 ovarian, over 100 µM; with T-47D breast it was 76.9 µM; with SF-268 CNS it was over 100 µM. The TGI with BT-549 breast, in the assay with OVCAR-3 ovarian, in the assay on SK-MEL-5 melanoma, with COLO 205 colon, in the assay on NCI/ADR-RES ovarian and with SNB-19 CNS was over 100 µM in each case. For the same molecule, the TGI with IGROV1 ovarian and in the assay with UO-31 renal was over 100 µM throughout.

On to `COc1cc(C2c3cc4c(cc3[C@H](OCCN(C)C)[C@@H]3COC(=O)C23)OCO4)cc(OC)c1O` (stereo not given in full), for which the TGI with HS 578T breast is 6.04 µM; with SK-MEL-28 melanoma, 4.51 µM; with KM12 colon, 8.95 µM; in the assay with ACHN renal, 0.253 µM; with A549 NSCLC it was 1.34 µM; with SR leukemia it was 0.778 µM. Also, the TGI with HT29 colon was determined as 3.01 µM; in the assay with PC-3 prostate, 81.1 µM; with HOP-92 NSCLC it was 1.5 µM; with OVCAR-8 ovarian, 2.92 µM; with T-47D breast it was 2.52 µM; with SF-268 CNS, 2.97 µM. The TGI is 2.32 µM in the assay with BT-549 breast; 4.08 µM with OVCAR-3 ovarian; 1.74 µM in the assay on SK-MEL-5 melanoma; 9.05 µM with COLO 205 colon; 15.1 µM in the assay on NCI/ADR-RES ovarian; 5.98 µM in the assay with SNB-19 CNS. The TGI with IGROV1 ovarian is 7.5 µM; in the assay with UO-31 renal it was 1.71 µM.

In the case of `CC(=O)c1cccc2c1CC1(C2)Cc2ccc3c(c2C1=O)CCC3` (stereo not given), the TGI with HS 578T breast was over 100 µM; in the assay on SK-MEL-28 melanoma, over 100 µM; with KM12 colon it was over 100 µM; in the assay on ACHN renal it was over 100 µM; in the assay with A549 NSCLC, over 100 µM; in the assay with SR leukemia, 73.1 µM. Further, the TGI in the assay on HT29 colon is over 100 µM; with PC-3 prostate it was over 100 µM; in the assay with HOP-92 NSCLC, 64.2 µM; in the assay on OVCAR-8 ovarian, over 100 µM; with T-47D breast it was over 100 µM; in the assay with SF-268 CNS, over 100 µM. For the same molecule, the TGI with BT-549 breast is over 100 µM; in the assay on OVCAR-3 ovarian, over 100 µM; with SK-MEL-5 melanoma, 33.7 µM; in the assay on COLO 205 colon, 92.4 µM; in the assay on NCI/ADR-RES ovarian, 57.5 µM; in the assay with SNB-19 CNS it was over 100 µM. Moreover, the TGI with IGROV1 ovarian and in the assay with UO-31 renal was over 100 µM throughout.

In the case of `CCCN(CCCCC(NC(C)=O)C(=O)NCc1ccccc1)C(=O)N(CCCl)N=O` (stereo not given), the TGI in the assay with HS 578T breast, with SK-MEL-28 melanoma, with KM12 colon, in the assay with ACHN renal, with A549 NSCLC and in the assay on SR leukemia was over 100 µM in each case. The TGI with HT29 colon, with PC-3 prostate, in the assay on HOP-92 NSCLC, in the assay on OVCAR-8 ovarian, with T-47D breast and with SF-268 CNS was over 100 µM in each case. The TGI with BT-549 breast, with OVCAR-3 ovarian, in the assay on SK-MEL-5 melanoma, with COLO 205 colon, with NCI/ADR-RES ovarian and in the assay on SNB-19 CNS was over 100 µM throughout. Further, the TGI in the assay on IGROV1 ovarian and with UO-31 renal was over 100 µM throughout.

`NC(N)=N/N=C/c1c(Cl)nc2sccn12`: the TGI in the assay on HS 578T breast was 84.8 µM; in the assay on SK-MEL-28 melanoma, over 100 µM; in the assay on KM12 colon, 37.4 µM; in the assay on ACHN renal it was 33.4 µM; in the assay with A549 NSCLC, 93.8 µM; in the assay with SR leukemia it was 54 µM. The TGI with HT29 colon is 31.6 µM; in the assay with PC-3 prostate, over 100 µM; in the assay with HOP-92 NSCLC, 70.6 µM; in the assay on OVCAR-8 ovarian it was over 100 µM; in the assay on T-47D breast, over 100 µM; in the assay on SF-268 CNS it was over 100 µM. In addition, the TGI in the assay with BT-549 breast was over 100 µM; in the assay with OVCAR-3 ovarian it was 90.9 µM; in the assay with SK-MEL-5 melanoma it was 29.2 µM; with COLO 205 colon it was 33.5 µM; with NCI/ADR-RES ovarian it was over 100 µM; in the assay on SNB-19 CNS, over 100 µM. The TGI with IGROV1 ovarian and with UO-31 renal was over 100 µM throughout.

As to `COc1ccccc1N1C(=O)/C(=C\c2cccc(Oc3ccccc3)c2)SC1c1ccccc1` (stereo not given), the TGI with HS 578T breast, in the assay with SK-MEL-28 melanoma, in the assay on KM12 colon, in the assay on ACHN renal, with A549 NSCLC and in the assay on SR leukemia was over 100 µM in each case. Moreover, the TGI in the assay on HT29 colon, in the assay with PC-3 prostate, with HOP-92 NSCLC, with OVCAR-8 ovarian, in the assay with T-47D breast and in the assay on SF-268 CNS was over 100 µM throughout. For the same molecule, the TGI in the assay on BT-549 breast is over 100 µM; in the assay on OVCAR-3 ovarian it was over 100 µM; with SK-MEL-5 melanoma it was 32.8 µM; in the assay with COLO 205 colon, 55 µM; in the assay on NCI/ADR-RES ovarian, over 100 µM; in the assay with SNB-19 CNS, over 100 µM. Moreover, the TGI in the assay on IGROV1 ovarian and with UO-31 renal was over 100 µM each time.

Consider `CCSc1nc(N2CCOCC2)c2cn[nH]c2n1`, for which the TGI in the assay on HS 578T breast, in the assay on SK-MEL-28 melanoma, in the assay with KM12 colon, with ACHN renal, in the assay on A549 NSCLC and with SR leukemia was over 100 µM each time. Besides, the TGI in the assay with HT29 colon, in the assay on PC-3 prostate, in the assay with HOP-92 NSCLC, in the assay with OVCAR-8 ovarian, with T-47D breast and in the assay with SF-268 CNS was over 100 µM each time. The TGI in the assay with BT-549 breast, with OVCAR-3 ovarian, in the assay on SK-MEL-5 melanoma, in the assay with COLO 205 colon, in the assay with NCI/ADR-RES ovarian and with SNB-19 CNS was over 100 µM each time. For the same molecule, the TGI in the assay with IGROV1 ovarian and with UO-31 renal was over 100 µM in each case.

Regarding `C=C1CC[C@@]2(OC1)OC1C[C@H]3[C@@H]4CC=C5C[C@@H](O)CC(OC6OCC(OC(=O)[C@@H](O)[C@@H](C)CC)C(OC(C)=O)C6OC6OC(C)C(O)C(O)C6O)[C@]5(C)[C@H]4CC[C@]3(C)C1[C@@H]2C` (stereo not given in full), the TGI is over 10 µM with HS 578T breast; 4.58 µM in the assay with SK-MEL-28 melanoma; 5.13 µM in the assay with KM12 colon; 5.93 µM with ACHN renal; 4.73 µM in the assay on A549 NSCLC; 4.4 µM in the assay on SR leukemia. Also, the TGI with HT29 colon was over 10 µM; in the assay on PC-3 prostate it was 3.16 µM; in the assay on HOP-92 NSCLC it was over 10 µM; in the assay on OVCAR-8 ovarian, 4.31 µM; in the assay on T-47D breast, over 10 µM; with SF-268 CNS, 4.12 µM. Further, the TGI with BT-549 breast is over 10 µM; in the assay on OVCAR-3 ovarian, 3.77 µM; in the assay on SK-MEL-5 melanoma it was 3.59 µM; in the assay on COLO 205 colon, 4.5 µM; in the assay with NCI/ADR-RES ovarian it was 6 µM; in the assay with SNB-19 CNS, 3.87 µM. Further, the TGI is 7.79 µM in the assay with IGROV1 ovarian and 4.56 µM with UO-31 renal.

For `CC(C)NC(=O)OCc1c(COC(=O)NC(C)C)c(-c2ccc[n+](COC(=O)CC(C)(C)C)c2)n2c1CCC2`, the TGI with HS 578T breast, in the assay with SK-MEL-28 melanoma, with KM12 colon, with ACHN renal, with A549 NSCLC and in the assay with SR leukemia was over 100 µM throughout. For the same molecule, the TGI in the assay on HT29 colon, in the assay on PC-3 prostate, in the assay on HOP-92 NSCLC, with OVCAR-8 ovarian, in the assay with T-47D breast and in the assay on SF-268 CNS was over 100 µM in each case. The TGI in the assay on BT-549 breast, with OVCAR-3 ovarian, with SK-MEL-5 melanoma, in the assay on COLO 205 colon, in the assay with NCI/ADR-RES ovarian and with SNB-19 CNS was over 100 µM each time. Further, the TGI in the assay with IGROV1 ovarian and in the assay with UO-31 renal was over 100 µM throughout.
